Active and inactive are the calls of the source. How the calls were made is not given here.
System: rodent lifetime carcinogenesis bioassay, tumor incidence TD50
Experiment: carcinogenic potency in animals, long-term in vivo studies, CPDB compilation (AID 1745844)

In the case of `O=c1cc[nH]c(=S)[nH]1`, the TD50 (mouse, strain C3H (MTV+), females, in feed, site: liver, lesion: hepatoma, dosed 73 weeks, study length 73 weeks) is reported as 63.3 mg/kg/day, the TD50 (mouse, strain C3H (MTV+), males, in feed, site: liver, lesion: hepatoma, dosed 73 weeks, study length 73 weeks) is reported as 48.6 mg/kg/day and the carcinogen call (mouse, strain TM, females, in feed, site: liver, lesion: hepatoma, dosed 73 weeks, study length 73 weeks) is reported as “negative (inactive)”. The carcinogen call (mouse, strain TM, males, in feed, site: liver, lesion: hepatoma, dosed 73 weeks, study length 73 weeks) was “negative (inactive)”, the TD50 (rat, strain Fischer 344, females, in feed, site: thyroid gland, lesion: malignant tumor, dosed 103 weeks, study length 103 weeks) was 22.9 mg/kg/day and the TD50 (rat, strain Fischer 344, males, in feed, site: thyroid gland, lesion: malignant tumor, dosed 103 weeks, study length 103 weeks) was 8.05 mg/kg/day.
Compound `FC(F)(F)CCl` has a TD50 (rat, strain Alpk:APfSD, females, by gavage, site: uterus, lesion: adenocarcinoma, dosed 52 weeks, study length 125 weeks) of 160 mg/kg/day and a TD50 (rat, strain Alpk:APfSD, males, by gavage, site: testis, lesion: interstitial-cell tumor, dosed 52 weeks, study length 125 weeks) of 60 mg/kg/day.
With `O=C(O)c1cc(O)c(O)c(O)c1` the carcinogen call (rat, strain F344/DuCrj, males, in feed, site: forestomach, lesion: squamous-cell carcinoma, dosed 60 weeks, study length 60 weeks) was “negative (inactive)” and the carcinogen call (rat, strain F344/DuCrj, males, in feed, site: forestomach, lesion: squamous-cell papilloma, dosed 60 weeks, study length 60 weeks) was “negative (inactive)”.
In the case of `O=P(=O)O`, the TD50 (rat, strain F344/DuCrj, females, in feed, site: any site (literature study), lesion: several types, types named in the paper, dosed 108 weeks, study length 108 weeks) is reported as 5100 mg/kg/day (inactive), the carcinogen call (rat, strain F344/DuCrj, females, in feed, site: liver, lesion: one or several types, types not named, dosed 108 weeks, study length 108 weeks) is reported as “negative (inactive)” and the carcinogen call (rat, strain F344/DuCrj, males, in feed, site: any site (literature study), lesion: several types, types named in the paper, dosed 108 weeks, study length 108 weeks) is reported as “negative (inactive)”. For the same compound, the carcinogen call (rat, strain F344/DuCrj, males, in feed, site: liver, lesion: one or several types, types not named, dosed 108 weeks, study length 108 weeks) was “negative (inactive)”.
With `CN(C)c1ccc(C(=C2C=CC(=[N+](C)C)C=C2)c2ccc(N(C)C)cc2)cc1` the TD50 (mouse, strain B6C3F1, females, in feed, site: Harderian gland, lesion: adenoma, dosed 107 weeks, study length 107 weeks) was 305 mg/kg/day, the TD50 (mouse, strain B6C3F1, females, in feed, site: liver, lesion: hepatocellular adenoma, dosed 78 weeks, study length 78 weeks) was 115 mg/kg/day and the TD50 (mouse, strain B6C3F1, females, in feed, site: liver, lesion: hepatocellular adenoma, dosed 107 weeks, study length 107 weeks) was 75.5 mg/kg/day. The TD50 (mouse, strain B6C3F1, females, in feed, site: liver, lesion: hepatocellular carcinoma, dosed 78 weeks, study length 78 weeks) was 343 mg/kg/day, the TD50 (mouse, strain B6C3F1, females, in feed, site: liver, lesion: hepatocellular carcinoma, dosed 107 weeks, study length 107 weeks) was 57.9 mg/kg/day and the carcinogen call (mouse, strain B6C3F1, females, in feed, site: liver, lesion: one or several types, types not named, dosed 52 weeks, study length 52 weeks) was “negative (inactive)”. It also gave a TD50 (mouse, strain B6C3F1, females, in feed, site: ovary, lesion: reticulum-cell sarcoma, type A, dosed 107 weeks, study length 107 weeks) of 912 mg/kg/day, a TD50 (mouse, strain B6C3F1, females, in feed, site: urinary bladder, lesion: reticulum-cell sarcoma, type A, dosed 107 weeks, study length 107 weeks) of 834 mg/kg/day and a TD50 (mouse, strain B6C3F1, females, in feed, site: uterus, lesion: reticulum-cell sarcoma, type A, dosed 107 weeks, study length 107 weeks) of 413 mg/kg/day. The TD50 (mouse, strain B6C3F1, females, in feed, site: vagina, lesion: reticulum-cell sarcoma, type A, dosed 107 weeks, study length 107 weeks) was 668 mg/kg/day, the TD50 (mouse, strain B6C3F1, males, in feed, site: Harderian gland, lesion: adenoma, dosed 107 weeks, study length 107 weeks) was 615 mg/kg/day and the carcinogen call (mouse, strain B6C3F1, males, in feed, site: liver, lesion: hepatocellular adenoma, dosed 52 weeks, study length 52 weeks) was “negative (inactive)”. For the same compound, the TD50 (mouse, strain B6C3F1, males, in feed, site: liver, lesion: hepatocellular adenoma, dosed 78 weeks, study length 78 weeks) was 636 mg/kg/day (inactive), the TD50 (mouse, strain B6C3F1, males, in feed, site: liver, lesion: hepatocellular adenoma, dosed 107 weeks, study length 107 weeks) was 139 mg/kg/day and the carcinogen call (mouse, strain B6C3F1, males, in feed, site: liver, lesion: hepatocellular carcinoma, dosed 78 weeks, study length 78 weeks) was “negative (inactive)”. It also gave a TD50 (mouse, strain B6C3F1, males, in feed, site: liver, lesion: hepatocellular carcinoma, dosed 107 weeks, study length 107 weeks) of 222 mg/kg/day.
For `O=NN1CCCCC1C(=O)O` (configuration not stated), the TD50 (rat, strain MRC, females, in drinking water, site: any site (literature study), lesion: several types, types named in the paper, dosed 75 weeks, study length 104 weeks) was 4.99 mg/kg/day (inactive) and the TD50 (rat, strain MRC, males, in drinking water, site: any site (literature study), lesion: several types, types named in the paper, dosed 75 weeks, study length 104 weeks) was 3.82 mg/kg/day (inactive).

From PubChem BioAssay AID1745844 (Carcinogenic Potency Database (CPDB), 2022)
